Reference: PMC9226124, “Macrocycle-stabilization of its interaction with 14-3-3 increases plasma membrane localization and activity of CFTR” (Nature Communications, 2022)
Where “and” joins values, the source holds several entries; their conditions need not be identical. Equal entries are not always repeated.

Legend:
[1] = target: T1, F508del-CFTR in BHK cells (Homo sapiens, UniProt P13569, DEL508-508); assay: FLIPR membrane potential (FMP) assay; type: cell-based, hamster; details: individual replicates
T1 construct: expressed in transfected cells; host or cells: baby hamster kidney (BHK) cells
T1 sequence (P13569 with tags, fused parts or gaps DEL508-508): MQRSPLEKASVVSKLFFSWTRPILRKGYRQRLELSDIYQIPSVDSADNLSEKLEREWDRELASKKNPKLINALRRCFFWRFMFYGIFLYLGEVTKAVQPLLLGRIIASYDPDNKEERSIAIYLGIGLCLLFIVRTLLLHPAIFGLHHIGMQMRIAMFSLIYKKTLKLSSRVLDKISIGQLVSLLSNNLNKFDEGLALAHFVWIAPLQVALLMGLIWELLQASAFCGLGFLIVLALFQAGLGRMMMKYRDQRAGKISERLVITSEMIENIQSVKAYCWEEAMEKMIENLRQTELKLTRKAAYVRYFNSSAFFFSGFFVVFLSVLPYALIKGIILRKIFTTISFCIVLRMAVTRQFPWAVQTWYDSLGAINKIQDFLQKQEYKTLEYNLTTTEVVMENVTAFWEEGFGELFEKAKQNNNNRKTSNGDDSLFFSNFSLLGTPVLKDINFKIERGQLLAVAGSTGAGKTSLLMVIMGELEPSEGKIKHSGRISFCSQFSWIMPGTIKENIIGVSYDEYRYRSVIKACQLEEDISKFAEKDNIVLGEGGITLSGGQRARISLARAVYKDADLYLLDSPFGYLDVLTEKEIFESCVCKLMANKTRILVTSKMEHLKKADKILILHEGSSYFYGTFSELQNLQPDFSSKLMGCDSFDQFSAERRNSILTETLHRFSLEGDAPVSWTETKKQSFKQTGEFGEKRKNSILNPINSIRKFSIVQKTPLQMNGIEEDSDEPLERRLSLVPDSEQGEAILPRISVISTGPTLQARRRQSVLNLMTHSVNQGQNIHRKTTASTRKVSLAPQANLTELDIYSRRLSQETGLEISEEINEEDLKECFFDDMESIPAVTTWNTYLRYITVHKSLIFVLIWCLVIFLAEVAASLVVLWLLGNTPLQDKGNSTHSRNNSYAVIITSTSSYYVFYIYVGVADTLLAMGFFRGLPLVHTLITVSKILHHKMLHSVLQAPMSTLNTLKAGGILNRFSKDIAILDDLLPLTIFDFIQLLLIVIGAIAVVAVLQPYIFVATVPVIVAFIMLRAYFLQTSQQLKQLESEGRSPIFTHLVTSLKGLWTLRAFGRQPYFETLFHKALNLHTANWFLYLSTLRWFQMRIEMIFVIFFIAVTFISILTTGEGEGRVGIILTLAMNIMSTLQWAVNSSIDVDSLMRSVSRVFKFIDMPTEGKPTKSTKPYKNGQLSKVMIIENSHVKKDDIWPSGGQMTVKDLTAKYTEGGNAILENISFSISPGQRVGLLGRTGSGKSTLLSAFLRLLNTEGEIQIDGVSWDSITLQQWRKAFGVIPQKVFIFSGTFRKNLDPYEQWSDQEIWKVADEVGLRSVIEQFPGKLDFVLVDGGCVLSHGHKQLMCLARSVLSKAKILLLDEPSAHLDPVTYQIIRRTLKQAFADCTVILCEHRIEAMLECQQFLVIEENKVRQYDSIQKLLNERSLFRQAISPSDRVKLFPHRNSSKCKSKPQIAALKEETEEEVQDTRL
Summary of the method: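 BHK cells expressing F508del-CFTR were incubated 24 h at 37 °C with 20 μM compound. FMP dye plus genistein was added in low-Cl⁻ buffer (pH 7.4), then forskolin after a 2 min baseline. Fluorescence was monitored 5 min; the value is the rate of fluorescence change.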

[2] = target: T2, 14-3-3β/CFTRpS753pS768 complex (Homo sapiens, UniProt P13569+P31946); assay: FP assay, 14-3-3β titration at constant compound concentration (apparent KD); type: binding; details: for FP signal, 14-3-3β titration: replicates
T2 construct: His6 (cleaved yes); made in house; peptide synthetic
T2 sequence (P31946 whole entry): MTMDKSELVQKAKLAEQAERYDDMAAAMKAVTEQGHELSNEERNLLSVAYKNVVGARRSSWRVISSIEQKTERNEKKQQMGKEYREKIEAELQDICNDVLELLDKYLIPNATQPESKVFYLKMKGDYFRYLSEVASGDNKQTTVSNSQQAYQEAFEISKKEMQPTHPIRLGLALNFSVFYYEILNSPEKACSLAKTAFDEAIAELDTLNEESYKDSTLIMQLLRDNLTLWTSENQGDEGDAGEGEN
T2 sequence (P13569 747-774 limits assumed): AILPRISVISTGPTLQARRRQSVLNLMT

## N=C(N)NCCCC1NC(=O)C(CCC(N)=O)NC(=O)C(CCCNC(=N)N)NC(=O)C2CCCN2Cc2cccc(c2)-c2ccccc2CNC1=O (stereo not drawn) [CY007458]
[1]
  FMP assay signal (Fig5b): 121.393 and 152.286 and 131.821 and 116.107 and 106.464 and 116.643
[2]; CY compound (100 μM), 14-3-3β concentration 1.5625e-5 M
  Fluorescence polarization signal, 14-3-3β titration: 76.6667
[2]; CY compound (100 μM), 14-3-3β concentration 3.125e-5 M
  Fluorescence polarization signal, 14-3-3β titration: 83.6667 and 85.6667
[2]; CY compound (100 μM), 14-3-3β concentration 6.25e-5 M
  Fluorescence polarization signal, 14-3-3β titration: 102.667 and 98.6667 and 101.667
[2]; CY compound (100 μM), 14-3-3β concentration 0.000125 M
  Fluorescence polarization signal, 14-3-3β titration: 115.667 and 111.667 and 118.667
[2]; CY compound (100 μM), 14-3-3β concentration 0.00025 M
  Fluorescence polarization signal, 14-3-3β titration: 131.667 and 136.667 and 132.667
[2]; CY compound (100 μM), 14-3-3β concentration 0.0005 M
  Fluorescence polarization signal, 14-3-3β titration: 153.667 and 151.667 and 152.667
[2]; FC-A + CY compound, 14-3-3β concentration 1.5625e-5 M
  Fluorescence polarization signal, 14-3-3β titration: 140.333 and 143.333 and 144.333
[2]; FC-A + CY compound, 14-3-3β concentration 3.125e-5 M
  Fluorescence polarization signal, 14-3-3β titration: 147.333 and 148.333 and 150.333
[2]; FC-A + CY compound, 14-3-3β concentration 6.25e-5 M
  Fluorescence polarization signal, 14-3-3β titration: 156.333
[2]; FC-A + CY compound, 14-3-3β concentration 0.000125 M
  Fluorescence polarization signal, 14-3-3β titration: 159.333 and 161.333 and 160.333
[2]; FC-A + CY compound, 14-3-3β concentration 0.00025 M
  Fluorescence polarization signal, 14-3-3β titration: 164.333 and 167.333
[2]; FC-A + CY compound, 14-3-3β concentration 0.0005 M
  Fluorescence polarization signal, 14-3-3β titration: 175.333 and 176.333 and 172.333

## N=C(N)NCCCC1NC(=O)C(CCC(N)=O)NC(=O)C(CCCNC(=N)N)NC(=O)C2CCCN2Cc2ccccc2Sc2ccccc2CNC1=O (stereo not drawn) [CY007502]
[1]
  FMP assay signal (Fig5b): 13.036 and 27.929 and 39.536 and 44.036 and 44.893 and 22.781
[2]; 14-3-3β 7.62939e-9 M, FC-A + CY compound
  FP signal, 14-3-3β titration: 7 and 2 and -1
[2]; 14-3-3β 7.62939e-9 M, compound 100 μM
  FP signal, 14-3-3β titration: 6 and 5
[2]; 14-3-3β 1.52588e-8 M, FC-A + CY compound
  FP signal, 14-3-3β titration: 5 (2×) and 6
[2]; 14-3-3β 1.52588e-8 M, compound 100 μM
  FP signal, 14-3-3β titration: 0 and 3 and 4
[2]; 14-3-3β 3.05176e-8 M, FC-A + CY compound
  FP signal, 14-3-3β titration: 12 and 13 and 8
[2]; 14-3-3β 3.05176e-8 M, compound 100 μM
  FP signal, 14-3-3β titration: 4 and 5 and 3
[2]; 14-3-3β 6.10352e-8 M, FC-A + CY compound
  FP signal, 14-3-3β titration: 19 and 17 (2×)
[2]; 14-3-3β 6.10352e-8 M, compound 100 μM
  FP signal, 14-3-3β titration: 3 (2×) and 5
[2]; 14-3-3β 1.2207e-7 M, FC-A + CY compound
  FP signal, 14-3-3β titration: 30 and 33 and 27
[2]; 14-3-3β 1.2207e-7 M, compound 100 μM
  FP signal, 14-3-3β titration: 6 and 5 and 8
[2]; 14-3-3β 2.44141e-7 M, FC-A + CY compound
  FP signal, 14-3-3β titration: 51 and 57 and 45
[2]; 14-3-3β 2.44141e-7 M, compound 100 μM
  FP signal, 14-3-3β titration: 8 (2×) and 7
[2]; 14-3-3β 4.88281e-7 M, FC-A + CY compound
  FP signal, 14-3-3β titration: 76 and 79 and 69
[2]; 14-3-3β 4.88281e-7 M, compound 100 μM
  FP signal, 14-3-3β titration: 10 and 8 and 12
[2]; 14-3-3β 9.76563e-7 M, FC-A + CY compound
  FP signal, 14-3-3β titration: 99 and 95 and 89
[2]; 14-3-3β 9.76563e-7 M, compound 100 μM
  FP signal, 14-3-3β titration: 16 and 15 and 18
[2]; 14-3-3β 1.95313e-6 M, FC-A + CY compound
  FP signal, 14-3-3β titration: 108 (2×) and 110
[2]; 14-3-3β 1.95313e-6 M, compound 100 μM
  FP signal, 14-3-3β titration: 24 (2×) and 28
[2]; 14-3-3β 3.90625e-6 M, FC-A + CY compound
  FP signal, 14-3-3β titration: 119 (2×) and 117
[2]; 14-3-3β 3.90625e-6 M, compound 100 μM
  FP signal, 14-3-3β titration: 31 and 32 and 33
[2]; 14-3-3β 7.8125e-6 M, FC-A + CY compound
  FP signal, 14-3-3β titration: 126 and 127 and 121
[2]; 14-3-3β 7.8125e-6 M, compound 100 μM
  FP signal, 14-3-3β titration: 35 and 40 and 41
[2]; 14-3-3β 1.5625e-5 M, FC-A + CY compound
  FP signal, 14-3-3β titration: 132 and 128 and 129
[2]; 14-3-3β 1.5625e-5 M, compound 100 μM
  FP signal, 14-3-3β titration: 49 and 50 and 52
[2]; 14-3-3β 3.125e-5 M, FC-A + CY compound
  FP signal, 14-3-3β titration: 138 and 136 and 135
[2]; 14-3-3β 3.125e-5 M, compound 100 μM
  FP signal, 14-3-3β titration: 64 and 62 and 65
[2]; 14-3-3β 6.25e-5 M, FC-A + CY compound
  FP signal, 14-3-3β titration: 143 and 145
[2]; 14-3-3β 6.25e-5 M, compound 100 μM
  FP signal, 14-3-3β titration: 87 and 83 and 85
[2]; 14-3-3β 0.000125 M, FC-A + CY compound
  FP signal, 14-3-3β titration: 156 and 151 and 152
[2]; 14-3-3β 0.000125 M, compound 100 μM
  FP signal, 14-3-3β titration: 104 and 106 and 103
[2]; 14-3-3β 0.00025 M, FC-A + CY compound
  FP signal, 14-3-3β titration: 165 and 159 and 157
[2]; 14-3-3β 0.00025 M, compound 100 μM
  FP signal, 14-3-3β titration: 119 (2×) and 122
[2]; 14-3-3β 0.0005 M, FC-A + CY compound
  FP signal, 14-3-3β titration: 177 and 175 and 169
[2]; 14-3-3β 0.0005 M, compound 100 μM
  FP signal, 14-3-3β titration: 151 and 144 and 146
